Experimental data published in the supplement of paper PMC10307832.

Key:
Assay in all cases: relative viability (nuclei count vs DMSO), 5 days (fraction); higher = more cells survive
[1] = compound: O=c1[nH]cc(F)c(=O)[nH]1 [5-Fluorouracil] + Cc1nc(NC(=O)N2CCC[C@H]2C(N)=O)sc1-c1ccnc(C(C)(C)C(F)(F)F)c1 [Alpelisib] (partner 2 µM)
In short: (§1)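 Relative viability was taken as the ratio of nuclei in treated wells to nuclei in vehicle wells. Lung cancer cell lines in 1536-well plates received compounds by pin tool one day after seeding, either one drug alone or a fixed anchor-drug dose plus five library-drug doses (not always all listed) in √10 steps. Nuclei were counted on 4× images after 5 days of treatment, and values are medians of duplicate plates.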

[2] = compound: CC1=C(CC(=O)O)c2cc(F)ccc2/C1=C\c1ccc([S+](C)[O-])cc1 [Sulindac] + Nc1nc2[nH]cc(CCc3ccc(C(=O)N[C@@H](CCC(=O)O)C(=O)O)cc3)c2c(=O)[nH]1 [Pemetrexed] (partner 0.2 µM)
In short: as §1

[3] = compound: O=c1[nH]cc(F)c(=O)[nH]1 [5-Fluorouracil] + Nc1ncn([C@H]2C[C@H](O)[C@@H](CO)O2)c(=O)n1 [Decitabine] (partner 2 µM)
In short: as §1

[4] = compound: CC1=C(CC(=O)O)c2cc(F)ccc2/C1=C\c1ccc([S+](C)[O-])cc1 [Sulindac] + CC(=O)Nc1cccc(-n2c(=O)n(C3CC3)c(=O)c3c(Nc4ccc(I)cc4F)n(C)c(=O)c(C)c32)c1 [Trametinib] (partner 0.02 µM)
In short: as §1

Row | Cell Line | relative viability ([1]; first compound 0.02 µM) | relative viability ([1]; first compound 0.2 µM) | relative viability ([1]; first compound 0.6325 µM) | relative viability ([1]; first compound 2 µM) | relative viability ([2]; first compound 0.08 µM) | relative viability ([2]; first compound 0.253 µM) | relative viability ([2]; first compound 0.8 µM) | relative viability ([2]; first compound 2.53 µM) | relative viability ([2]; first compound 8 µM) | relative viability ([3]; first compound 0.02 µM) | relative viability ([3]; first compound 0.2 µM) | relative viability ([3]; first compound 0.6325 µM) | relative viability ([3]; first compound 2 µM) | relative viability ([4]; first compound 0.08 µM) | relative viability ([4]; first compound 0.253 µM) | relative viability ([4]; first compound 0.8 µM) | relative viability ([4]; first compound 2.53 µM) | relative viability ([4]; first compound 8 µM)
1 | NCI-H1299 | 1.11 | 1.14 | 0.953 | 0.763 | – | – | – | – | – | – | – | – | – | – | – | – | – | –
2 | NCI-H322M | 0.772 | 0.785 | 0.609 | 0.5 | 0.646 | 0.642 | 0.597 | 0.552 | 0.666 | 0.638 | 0.616 | 0.774 | 0.676 | 0.474 | 0.506 | 0.48 | 0.5 | 0.603
3 | NCI-H1395 | 1.1 | 1.02 | 1.14 | 0.844 | 0.931 | 1.02 | 0.828 | 0.855 | 1.12 | 0.802 | 0.781 | 0.771 | 0.736 | 0.966 | 0.999 | 0.939 | 0.949 | 1.17
4 | NCI-H2023 | 0.456 | 0.256 | 0.124 | 0.0987 | 0.267 | 0.226 | 0.186 | 0.196 | 0.244 | 0.271 | 0.141 | 0.106 | 0.0886 | 0.62 | 0.543 | 0.427 | 0.493 | 0.716
5 | NCI-H1651 | 1.01 | 0.672 | 0.552 | 0.504 | 0.766 | 0.626 | 0.581 | 0.569 | 0.613 | 0.598 | 0.613 | 0.321 | 0.264 | 0.797 | 0.844 | 0.733 | 0.801 | 0.845
6 | HARA | 0.902 | 0.925 | 0.809 | 0.748 | 0.237 | 0.257 | 0.242 | 0.239 | 0.288 | 0.519 | 0.533 | 0.605 | 0.488 | 0.516 | 0.926 | 0.777 | 0.715 | 0.735
7 | NCI-H1944 | 0.804 | 0.763 | 0.351 | 0.211 | 0.701 | 0.636 | 0.412 | 0.582 | 0.722 | 0.472 | 0.399 | 0.268 | 0.183 | 0.476 | 0.418 | 0.328 | 0.421 | 0.487
8 | NCI-H2405 | 0.793 | 0.705 | 0.737 | 0.609 | 1.14 | 1.17 | 0.971 | 0.926 | 1.15 | 0.734 | 0.741 | 0.738 | 0.661 | 0.687 | 0.668 | 0.581 | 0.634 | 0.731
9 | 201T | 0.979 | 0.873 | 0.325 | 0.332 | 0.329 | 0.325 | 0.339 | 0.323 | 0.366 | 0.885 | 0.559 | 0.3 | 0.257 | 0.763 | 0.732 | 0.717 | 0.695 | 0.712
10 | RERF-LC-KJ | 0.764 | 0.836 | 0.852 | 0.62 | 0.458 | 0.486 | 0.506 | 0.447 | 0.519 | 0.66 | 0.762 | 0.776 | 0.736 | 0.99 | 0.928 | 0.778 | 0.877 | 0.933
11 | Calu-6 | 1.03 | 0.976 | 0.684 | 0.448 | – | – | – | – | – | – | – | – | – | – | – | – | – | –
12 | NCI-H1734 | 0.559 | 0.756 | 0.582 | 0.529 | 0.477 | 0.421 | 0.439 | 0.44 | 0.452 | 0.536 | 0.518 | 0.499 | 0.396 | 0.673 | 0.725 | 0.575 | 0.693 | 0.832
13 | NCI-H1650 | – | – | – | – | 0.443 | 0.391 | 0.349 | 0.377 | 0.385 | 0.573 | 0.473 | 0.348 | 0.271 | 0.599 | 0.794 | 0.445 | 0.491 | 0.766
14 | NCI-H1648 | – | – | – | – | 0.889 | 0.781 | – | 0.569 | 0.787 | 0.541 | 0.528 | 0.47 | 0.371 | 0.379 | 0.414 | – | 0.473 | 0.422
15 | ChaGo-K-1 | – | – | – | – | 0.269 | 0.247 | 0.302 | 0.262 | 0.275 | 0.573 | 0.519 | 0.435 | 0.439 | 1.05 | 0.963 | 0.817 | 0.914 | 0.903
16 | NCI-H727 | 0.545 | 0.582 | 0.641 | 0.577 | – | – | – | – | – | 0.844 | 0.996 | 0.822 | 0.844 | 0.362 | 0.414 | 0.378 | 0.417 | 0.35
17 | CAL-12T | 1.47 | 1.22 | 1.02 | 0.425 | 1.18 | 1.1 | 1.24 | 1.14 | 1.44 | – | – | – | – | 0.285 | 0.357 | 0.343 | 0.312 | 0.361
18 | NCI-H522 | – | – | – | – | 0.859 | 0.985 | 1.05 | 0.88 | 0.96 | 0.642 | 0.58 | 0.622 | 0.722 | 0.628 | 0.75 | 0.547 | 0.747 | 0.734
19 | ABC-1 | 1.11 | 1.16 | 0.896 | 0.92 | – | – | – | – | – | 1.25 | 0.959 | 0.944 | 0.87 | – | – | – | – | –
20 | SW 900 | – | – | – | – | 0.532 | 0.492 | – | – | 0.453 | 0.415 | 0.362 | 0.407 | 0.431 | 0.847 | 0.982 | – | – | 0.945
21 | IA-LM | 0.682 | 0.37 | 0.175 | 0.182 | – | – | – | – | – | – | – | – | – | – | – | – | – | –
22 | A549 | 0.587 | 0.476 | 0.256 | 0.113 | – | – | – | – | – | 0.296 | 0.264 | 0.252 | 0.224 | – | – | – | – | –
23 | NCI-H2228 | 0.582 | 0.655 | 0.59 | 0.409 | 0.376 | 0.445 | 0.289 | 0.371 | 0.319 | – | – | – | – | 0.621 | 0.675 | 0.5 | 0.523 | 0.364
